What all share (type): cell-based
The test system of assay [1] is HER2 positive tumor cells NCI-N87. The assay can be described thus: Proliferation inhibition of NCI-N87 cells by DXD and DDDXD (CCK-8). The note with it: Homo sapiens, NCI-N87, 120 h. The protocol:
DXD and DDDXD were pre-diluted to 140,000 ng/mL in culture medium and labeled as S1, and then five-fold serially diluted to obtain their corresponding reference samples S1-S9; the final drug concentration range was 35000 ng/mL to 0.0896 ng/mL with 9 concentrations in total. HER2 positive tumor cells NCI-N87 in the logarithmic growth phase were collected, adjusted to a density of 1×10^5 cells/mL, and plated at 100 μL per well, and a blank well without any cells was set as a control. The above serially diluted two samples were added at 50 μL per well. The plate was incubated in an incubator at 37° C. with 5% CO2 for 5 days. The culture medium was discarded, and CCK-8 (Dojindo, Japan, Cat. No. CK04) working solution was added at 100 μL per well. The plate was incubated for 4-5 h for color developing and placed in a microplate reader (manufacturer: Thermo, Model: VarioskanFlash). The absorbance values at a wavelength of 450 nm were read and recorded using a reference wavelength of 630 nm. The proliferation inhibition against the tumor cells were calculated.

Assay [2] relates to NCI-N87 Her2++ tumor cells. Briefly: Killing of Her2 positive target cell NCI-N87 with human PBMC effector cells (ADCC, CytoTox96). The conditions noted are these: effector-to-target ratio 10:1.
Method: The killing effects of the anti-Her2 bispecific antibodies on target cells (NCI-N87 Her2++, source: the Cell Bank of Type Culture Collection Committee of the Chinese Academy of Sciences) were studied using NK cells provided by human PBMCs (peripheral blood mononuclear cells), and the in vitro activity of the anti-Her2 bispecific antibodies was assessed by EC50 value.
The specific procedures are as follows: NCI-N87 cells were adjusted to a cell density of 3×10^5 cells/mL using 1640 medium containing 2% FBS (fetal bovine serum) and seeded in a 96-well cell culture plate (eppendorf, Cat. No. 0030730199) at 50 μL per well. […] Human PBMCs were adjusted to a cell density of 1.5×10^6 cells/mL using medium for experiment and added at 100 μL per well. An administration group (target cell+effector cell+antibody or control drug), a target cell group (NCI-N87 cell), an effector cell group (human PBMC), a target cell+effector cell group, a blank control group (medium) and a lysis solution control group, and a target cell maximum release group (target cell+lysis solution) were set, with the effector-to-target cell ratio being 10:1. […] After 45 min, the cell lysis rates were measured using a CytoTox96® nonradioactive cytotoxicity assay (Promega, G1780). […]
For another assay, the system named is JIMT-1 tumor cells. The assay can be described thus: Killing of trastuzumab-resistant cell JIMT-1 with human PBMC effector cells (ADCC, CytoTox96). The conditions noted are these: effector-to-target ratio 20:1.

Method for JIMT-1 tumor cells: The killing effects of the anti-Her2 bispecific antibodies on target cells (JIMT-1, source: AddexBio, Cat. No. C0006005) were studied using NK cells provided by human PBMCs (peripheral blood mononuclear cells), and the in vitro activity of the anti-Her2 bispecific antibodies was assessed by EC50 value.
The specific procedures are as follows: JIMT-1 cells were adjusted to a cell density of 3×10^5 cells/mL using 1640 medium containing 2% FBS (fetal bovine serum) and seeded in a 96-well cell culture plate (eppendorf, Cat. No. 0030730199) at 50 μL per well. […] Human PBMCs were adjusted to a cell density of 1.5×10^6 cells/mL using medium for experiment and added at 100 μL per well. An administration group (target cell+effector cell+antibody or control drug), a target cell group (JIMT-1BT474 cell), an effector cell group (human PBMC), a target cell+effector cell group, a blank control group (medium) and a lysis solution control group, and a target cell maximum release group (target cell+lysis solution) were set, with the effector-to-target cell ratio being 20:1. 45 min prior to the assay, 20 μL/well of lysis solution (Promega, Cat. No. G182A) was added to the target cell maximum release group and the lysis solution control group. After 45 min, the cell lysis rates were measured using a CytoTox96® nonradioactive cytotoxicity assay (Promega, G1780). […]

Consider `CC[C@@]1(O)C(=O)OCc2c1cc1n(c2=O)Cc2c-1nc1cc(F)c(C)c3c1c2[C@@H](NC(=O)CO)CC3` [DXD], for which the IC50 (as a rule, the midpoint of a concentration-inhibition curve) in assay [1] came to 4.45 nM.

As for T-DM1, the EC50 (commonly the concentration at which the effect is half-maximal) in assay [2] came to 0.0739 nM; in the assay with JIMT-1 tumor cells, 0.0836 nM.

Values taken from patent US12622977B2, “Antibody drug conjugate” (CHIA TAI TIANQING PHARMACEUTICAL GROUP CO., LTD., priority 2020, dated 2026).
